Assay results as given in patent publication US8604225B2, “Method of producing hydroxymethyl-furfural” (Novozymes, A/S, priority 2010, dated 2013).
Read-outs that look alike come from different tables or passages of the source.

Experiments:
[1] = HMF distribution between MIBK phase and aqueous phase with different salts and boric acid; type: physicochemical; conditions: 30 wt % fructose, B(OH)3 0.3 g and salt 3 mmol (anion) in 3 mL, MIBK:aqueous 4:1, 150° C. 45 min
Protocol: (§1) An aqueous solution containing 30 wt % fructose (3 mL, 5.7 mmol) was mounted in an Ace vial pressure tube (stable to ˜20 Bar) and solid B(OH)3 (0.3 g, 5 mmol) and solid salt (3 mmol with respect to the anion) were added to the solution. MIBK was added as extraction solvent so that an organic:aqueous volume ratio of 4:1 was obtained. The tube with the reaction mixture was placed in a preheated oil bath for a specified time under magnetic stirring (420 rpm) at a 150° C. for 45 min (reaction times were measured after a stable oil bath temperature had been reached). After the reaction, the tube was removed from the oil bath and cooled to room temperature before a sample was taken for analysis. A sample of the reaction mixture was collected and filtered through a syringe filter (0.45 μm PTFE), mixed with an internal standard (i-PrOH) and analyzed via HPLC.
The R value indicated in table 9 is the HMF distribution obtained between the MIBK phase and the aqueous phase, i.e. [HMF]MIBK/[HMF]aq

[2] = target: immobilized glucose isomerase (Sweetzyme™) (Streptomyces murinus, UniProt P37031); conditions: for glucose isomerase performance at high salt concentration: as shown in example 12; for stability of Sweetzyme™ in the presence of the salt: conclusion of example 12
Chain of immobilized glucose isomerase (Sweetzyme™) (P37031 whole entry): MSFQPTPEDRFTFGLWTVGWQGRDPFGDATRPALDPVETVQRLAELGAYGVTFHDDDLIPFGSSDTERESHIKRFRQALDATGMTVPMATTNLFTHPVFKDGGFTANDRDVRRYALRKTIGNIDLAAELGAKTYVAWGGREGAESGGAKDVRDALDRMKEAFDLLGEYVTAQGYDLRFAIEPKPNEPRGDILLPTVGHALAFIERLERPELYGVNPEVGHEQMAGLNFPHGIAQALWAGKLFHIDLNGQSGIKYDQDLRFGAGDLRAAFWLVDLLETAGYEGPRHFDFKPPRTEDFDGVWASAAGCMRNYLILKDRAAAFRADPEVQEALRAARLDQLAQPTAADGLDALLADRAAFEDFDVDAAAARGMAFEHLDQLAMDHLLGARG

[3] = HMF distribution between organic extraction solvent and aqueous phase; type: physicochemical; conditions: B(OH)3 and NaCl, organic:aqueous 4:1, 150° C.
Protocol: as §1, with “NaCl (0.15 g, 3 mmol)” for “solid salt (3 mmol with respect to the anion)”, “Different organic” for “MIBK was added as”, “were added resulting in a” for “so that an”, “4:1.” for “4:1 was obtained.”, “C.” for “C. for 45 min”
The R value indicated in table 10 is the HMF distribution obtained between the MIBK phase and the aqueous phase, i.e. [HMF]MIBK/[HMF]aq.

[4] = 30 wt % fructose, time not given

In the case of `O=S(=O)([O-])[O-].[K+].[K+]` [K2SO4, potassium sulphate], the “R value (MIBK:aq)” value [1] was 1.5.
Molecule `O=S(=O)([O-])[O-].[Mg+2]` [MgSO4, Magnesium sulfate] has an Activity ([2]; Column 6: 102.98 g/l MgSO4, time 17.50 h) of 412.41 IGIU/g, an Activity ([2]; Column 6: 102.98 g/l MgSO4, time 45.50 h) of 420.62 IGIU/g and an Activity ([2]; Column 6: 102.98 g/l MgSO4, time 66.00 h) of 419.46 IGIU/g. The Activity ([2]; Column 6: 102.98 g/l MgSO4, time 138.00 h) was 428.95 IGIU/g, the Activity ([2]; Column 6: 102.98 g/l MgSO4, time 162.83 h) was 436.79 IGIU/g and the Activity ([2]; Column 6: 102.98 g/l MgSO4, time 186.83 h) was 452.92 IGIU/g. The Activity ([2]; Column 6: 102.98 g/l MgSO4, time 210.83 h) was 465.04 IGIU/g, the Activity ([2]; Column 6: 102.98 g/l MgSO4, time 233.17 h) was 424.51 IGIU/g and the Activity ([2]; Column 6: 102.98 g/l MgSO4, time 308.58 h) was 370.47 IGIU/g. The Activity ([2]; Column 6: 102.98 g/l MgSO4, time 330.75 h) was 366.35 IGIU/g, the Activity ([2]; Column 6: 102.98 g/l MgSO4, time 378.17 h) was 324.95 IGIU/g and the Activity ([2]; Column 6: 102.98 g/l MgSO4, time 473.75 h) was 306.53 IGIU/g. It also gave an Activity ([2]; Column 6: 102.98 g/l MgSO4, time 497.67 h) of 298.41 IGIU/g, an Activity ([2]; Column 6: 102.98 g/l MgSO4, time 521.58 h) of 299.60 IGIU/g and an Activity ([2]; Column 6: 102.98 g/l MgSO4, time 568.50 h) of 310.87 IGIU/g.
Work on `CCC(C)O` (stereo not shown) [2-BuOH, 2-butanol] yielded a R-value [3, 4] of 2.3.
With `[I-].[K+]` [KI, potassium iodine] the “R value (MIBK:aq)” value [1] was 0.7.
Work on `CC(=O)CC(C)C` [MIBK, methyl-isobutylketone] yielded a R-value [3, 4] of 1.0.
With `[Br-].[Li+]` [LiBr, lithium bromide] the “R value (MIBK:aq)” value [1] was 1.0.
For `[Cl-].[K+]` [KCl, potassium chloride], the “R value (MIBK:aq)” value [1] was 1.0, the Activity ([2]; Column 4: 63.78 g/l KCl, time 18.17 h) was 398.12 IGIU/g and the Activity ([2]; Column 4: 63.78 g/l KCl, time 46.17 h) was 410.62 IGIU/g. It also gave an Activity ([2]; Column 4: 63.78 g/l KCl, time 66.67 h) of 411.97 IGIU/g, an Activity ([2]; Column 4: 63.78 g/l KCl, time 138.67 h) of 415.42 IGIU/g and an Activity ([2]; Column 4: 63.78 g/l KCl, time 163.50 h) of 429.63 IGIU/g. For the same molecule, the Activity ([2]; Column 4: 63.78 g/l KCl, time 211.50 h) was 448.90 IGIU/g, the Activity ([2]; Column 4: 63.78 g/l KCl, time 233.83 h) was 469.08 IGIU/g and the Activity ([2]; Column 4: 63.78 g/l KCl, time 309.25 h) was 468.47 IGIU/g. It also gave an Activity ([2]; Column 4: 63.78 g/l KCl, time 331.42 h) of 469.21 IGIU/g, an Activity ([2]; Column 4: 63.78 g/l KCl, time 378.83 h) of 443.80 IGIU/g and an Activity ([2]; Column 4: 63.78 g/l KCl, time 474.42 h) of 430.17 IGIU/g. The Activity ([2]; Column 4: 63.78 g/l KCl, time 498.33 h) was 428.76 IGIU/g, the Activity ([2]; Column 4: 63.78 g/l KCl, time 522.25 h) was 418.17 IGIU/g and the Activity ([2]; Column 4: 63.78 g/l KCl, time 547.33 h) was 437.40 IGIU/g. The Activity ([2]; Column 4: 63.78 g/l KCl, time 569.17 h) was 438.97 IGIU/g, the Activity ([2]; Column 4: 63.78 g/l KCl, time 641.92 h) was 455.49 IGIU/g and the Activity ([2]; Column 4: 63.78 g/l KCl, time 669.67 h) was 426.01 IGIU/g. The “glucose isomerase performance at high salt concentration” value (“glucose isomerase performance” for short) [2] was “comparable with a normal glucose substrate” and the “stability of Sweetzyme™ in the presence of the salt” value (“stability of Sweetzyme™” below) [2] was “good stability”.
With `[Cl][Al]([Cl])[Cl]` [AlCl3, aluminum chloride] the “R value (MIBK:aq)” value [1] was 1.1.
In the case of `O=[N+]([O-])[O-].[Li+]` [LiNO3, lithium nitrate], the “R value (MIBK:aq)” value [1] was 0.9.
In the case of `O=S(=O)([O-])[O-].[Na+].[Na+]` [Na2SO4, sodium sulphate], the “R value (MIBK:aq)” value [1] was 1.7, the Activity ([2]; Column 5: 61.08 g/l Na2SO4, time 17.83 h) was 418.97 IGIU/g and the Activity ([2]; Column 5: 61.08 g/l Na2SO4, time 45.83 h) was 433.23 IGIU/g. The Activity ([2]; Column 5: 61.08 g/l Na2SO4, time 66.33 h) was 432.90 IGIU/g, the Activity ([2]; Column 5: 61.08 g/l Na2SO4, time 138.33 h) was 427.76 IGIU/g and the Activity ([2]; Column 5: 61.08 g/l Na2SO4, time 163.17 h) was 439.97 IGIU/g. It also gave an Activity ([2]; Column 5: 61.08 g/l Na2SO4, time 187.17 h) of 449.17 IGIU/g, an Activity ([2]; Column 5: 61.08 g/l Na2SO4, time 211.17 h) of 437.81 IGIU/g and an Activity ([2]; Column 5: 61.08 g/l Na2SO4, time 233.50 h) of 449.65 IGIU/g. It also gave an Activity ([2]; Column 5: 61.08 g/l Na2SO4, time 308.92 h) of 437.45 IGIU/g, an Activity ([2]; Column 5: 61.08 g/l Na2SO4, time 331.08 h) of 437.38 IGIU/g and an Activity ([2]; Column 5: 61.08 g/l Na2SO4, time 378.50 h) of 429.47 IGIU/g. The Activity ([2]; Column 5: 61.08 g/l Na2SO4, time 474.08 h) was 381.79 IGIU/g, the Activity ([2]; Column 5: 61.08 g/l Na2SO4, time 498.00 h) was 387.83 IGIU/g and the Activity ([2]; Column 5: 61.08 g/l Na2SO4, time 521.92 h) was 382.13 IGIU/g. For the same molecule, the Activity ([2]; Column 5: 61.08 g/l Na2SO4, time 547.00 h) was 394.91 IGIU/g, the Activity ([2]; Column 5: 61.08 g/l Na2SO4, time 568.83 h) was 393.80 IGIU/g and the Activity ([2]; Column 5: 61.08 g/l Na2SO4, time 641.58 h) was 376.25 IGIU/g. The Activity ([2]; Column 5: 61.08 g/l Na2SO4, time 669.33 h) was 370.35 IGIU/g, the “glucose isomerase performance” value [2] was “comparable with a normal glucose substrate” and the “stability of Sweetzyme™” value [2] was “good stability”.
For `O=[N+]([O-])[O-].[K+]` [KNO3, potassium nitrate], the “R value (MIBK:aq)” value [1] was 0.8.
`C1CCOC1` [THF, tetrahydrofuran] showed a R-value [3, 4] of 3.2, a R-value ([3]; 60 min) of 3.7 and a R-value ([3]; 75 min) of 3.6.
With `[Br-].[Na+]` [NaBr, sodium bromide] the “R value (MIBK:aq)” value [1] was 0.9.
For `O=[N+]([O-])[O-].[Na+]` [NaNO3, sodium nitrate], the “R value (MIBK:aq)” value [1] was 0.9.
With `[Cl-].[Na+]` [NaCl, sodium chloride] the “R value (MIBK:aq)” value [1] was 1.0, the Activity ([2]; 50 g/l NaCl, time 19.25 h) was 431.74 IGIU/g and the Activity ([2]; 50 g/l NaCl, time 47.25 h) was 438.80 IGIU/g. It also gave an Activity ([2]; 50 g/l NaCl, time 67.75 h) of 438.50 IGIU/g, an Activity ([2]; 50 g/l NaCl, time 139.75 h) of 425.49 IGIU/g and an Activity ([2]; 50 g/l NaCl, time 164.58 h) of 471.33 IGIU/g. For the same molecule, the Activity ([2]; 50 g/l NaCl, time 188.58 h) was 469.46 IGIU/g, the Activity ([2]; 50 g/l NaCl, time 212.58 h) was 451.52 IGIU/g and the Activity ([2]; 50 g/l NaCl, time 234.92 h) was 468.84 IGIU/g. For the same molecule, the Activity ([2]; 50 g/l NaCl, time 310.33 h) was 466.38 IGIU/g, the Activity ([2]; 50 g/l NaCl, time 332.50 h) was 468.14 IGIU/g and the Activity ([2]; 50 g/l NaCl, time 379.92 h) was 449.12 IGIU/g. It also gave an Activity ([2]; 50 g/l NaCl, time 475.50 h) of 446.72 IGIU/g, an Activity ([2]; 50 g/l NaCl, time 499.42 h) of 445.83 IGIU/g and an Activity ([2]; 50 g/l NaCl, time 523.33 h) of 439.69 IGIU/g. It also gave an Activity ([2]; 50 g/l NaCl, time 548.42 h) of 436.34 IGIU/g, an Activity ([2]; 50 g/l NaCl, time 570.25 h) of 436.11 IGIU/g and an Activity ([2]; 50 g/l NaCl, time 643.00 h) of 446.01 IGIU/g. The Activity ([2]; 50 g/l NaCl, time 670.75 h) was 435.86 IGIU/g, the “glucose isomerase performance” value [2] was “further stabilised” and the “stability of Sweetzyme™” value [2] was “good stability”.
In the case of `[Br-].[K+]` [KBr, potassium bromide], the “R value (MIBK:aq)” value [1] was 0.9.
In the case of `[Cl][Fe]([Cl])[Cl]` [FeCl3], the “R value (MIBK:aq)” value [1] was 1.1.
With `[Cl-].[Cl-].[Mg+2]` [MgCl] the “R value (MIBK:aq)” value [1] was 1.1.
With `[Cl-].[Li+]` [LiCl, lithium chloride] the “R value (MIBK:aq)” value [1] was 1.1.
